# From US7341991B2, “Inhibitors of amyloid precursor protein processing” (Posco, priority 2004, dated 2008)
# Entries after “also recorded” stand apart in the source; their conditions may differ. Where no end group is shown, it is not given here. [ ]: non-standard residue; d: D form. Ahx = NCCCCCC(=O)O
# Assays:
# [1] = system: cleavage of Sub M by rhBACE1; test: HPLC analysis of cleavage of Substrate M by β-secretase; format: biochemical; conditions: 25-fold amount of inhibitor; 420 nM β-secretase
# Description: Substrate M (100 μM) was preincubated with complementary peptides ([…]) in assay buffer (100 μl) overnight at RT. rhBACE (140 nM) in assay buffer was added and incubated for 11 hr at RT. Cleavage products of Substrate M by rhBACE were quantitated after separation by C-18 reversed-phase column chromatography (GRACE VyDAC).
# One of the advantages of the APP inhibitor described in the present invention is that it is a peptide or a mimetic that bind to the β-secretase cleavage site of APP, thus not affecting other β-secretase substrates. To confirm the specificity of the inventive APP inhibitor, two different types of substrates were used, APP Sub M and ST6Gal1. Both substrates are cleaved by β-secretase under normal conditions and the effect of the inventive APP inhibitor on the substrate cleavage was monitored by HPLC (See the schematic diagram in FIG. 16.) To carry out these experiments, the concentration of β-secretase required for cleavage of both substrates was determined as shown in FIG. 17. For substantial cleavage of ST6Gal1 substrate, 420 nM of the enzyme was required. Therefore, 420 nM of β-secretase was used for the following experiment.
# Reversed-phase HPLC was also used to analyze the products of enzyme action in vitro. […] The cleavage products were identified at 215 nm and quantitated by integrating the area under each peak. […]
# [2] = system: cleavage of Substrate M by rhBACE (recombinant human β-secretase); test: Fluorometric (FRET) assay for cleavage of F-Substrate M by β-secretase; format: biochemical; conditions: for inhibitory activity group on Substrate M cleavage: tested at various concentrations (FIG. 8)
# Excerpt: This assay system utilizes fluorescence resonance energy transfer (FRET) technology. Substrate M was synthesized with two fluorophores, a fluorescent donor and a proprietary quenching acceptor (purchased from a commercial source, R&D Systems). […] Upon cleavage of substrate by β-secretase, the fluorophore is separated from the quenching group, restoring the full fluorescence yield of donor.
# Substrate labeled with fluorophores will be called F-Substrate M (R&D Systems). Recombinant human β-secretase will be called rhBACE (recombinant human β-site APP cleavage enzyme) (purchased from R&D systems).
# […] Cleavage by rhBACE was detected by reading emitted fluorescence level.
# In this assay system, fluorescence resonance energy transfer (FRET) technology was utilized. […] After pre-incubation, substrate and HC peptide mixture in assay buffer was transferred to FluoroNunc™ 96 well white plate (Nunc, Roskilde, Denmark), and rhBACE1 (70 nM) was added. Time-dependent emission of fluorescence (excitation at 320 nm, emission at 405 nm) was monitored in a Molecular Devices SpectraMax Gemini EM fluorescence reader (CA, USA) for 1 h at 37° C. All assays were carried out in duplicate.
# [3] = system: cleavage of APP by BACE1 (CTFβ) in HEK 293-APP cells; test: Level of CTFβ in treated cells (immunoblot, 6E10); format: cell-based, human; conditions: HEK293-APP cells; for accumulation of cleavage product CTFβ: 9 h
# Description: When the confluency of the cells reached 90%, the cells were washed with PBS once, and HC peptide in serum free DMEM was added to the cells. […] The lysed cells were centrifuged at 12000×g for 10 min at 4° C. The protein in the supernatant was determined by bicinchoninic acid assay (Pierce, IL, USA) [Smith, P. K., Krohn, R. I., Hermanson, G. T., Mallia, A. K., Gartner, F. H., Provenzano, M. D., Fujimoto, E. K., Goeke, N. M., Olson, B. J., and Klenk, D. C. […] After electrophoresis, the proteins in the gel were electrophoretically transferred onto a polyvinylidene difluoride (PVDF) membrane at 100 mA for 80 min. The blotted membrane was fixed with 0.2% glutaraldehyde in PBS for 45 min at RT and treated for 5 min in boiling PBS. CTFβ (the C-terminal fragment of APP generated by BACE1) was detected by treatment of the membrane with 0.5 μg/ml of anti-Aβ N terminal 6E10 antibody (Signetlabs, Inc., MA, USA) followed by incubation with 0.2 μg/ml of anti-mouse antibody coupled with HRP (Amersham Biosciences Ltd. Uppsala, Sweden). The developed film was scanned and the density of CTFβ band was determined by Scion Image Program (Scion Corporation, MD, USA).
# [4] = system: Aβ production in HEK 293-APP cells; test: Measurement of Aβ level in culture media (Aβ1-40 immunoassay); format: cell-based, human; conditions: HEK293-APP cells
# Description: Human embryonic kidney (HEK) 293 cells stably transformed with the gene for APP695 (HEK 293-APP) were used for studies on the inhibitory activity of HC peptides. HEK 293-APP cells were generously supplied by Dr. T W Kim (Columbia University, NY, USA). HEK 293-APP cells were cultured in Dulbecco's Modified Eagle's Medium (DMEM) (Invitrogen, CA, USA) with 10% fetal bovine serum (HyClone, UT, USA) and 300 μg/ml of geneticin (Invitrogen, CA, USA) in a humidified atmosphere of 5% CO2, 95% air at 37° C. Cells were subcultured after trypsinization, and the medium was changed every 2-3 days.
# The culture media from the peptide-treated cells (see above) was harvested and centrifuged at 3500×g for 10 min. Amount of Aβ in the supernatant was determined with human Aβ1-40 immunoassay kits (Signal Select™, BioSource, CA, USA) according to the instruction provided by the company.
# rhBACE1 = target: T1, rhBACE1 (Homo sapiens, UniProt P56817); test: ELISA binding of rhBACE1 to immobilized c-Sub M
# T1 construct: purchased R&D Systems
# Excerpt: In one embodiment of the present invention, four HC decapeptides targeted to either wild type APP or APPsw may be designed. […] Therefore, there is possibility that c-Sub M or any compounds derived from c-Sub M may inhibit production of Aβ from wild type APP in cells.
# [5] = system: Substrate M (SEVNLDAEFR, β-secretase cleavage site of APPsw); test: Binding of biotin-labeled Substrate M to immobilized complementary (HC) peptides; conditions: biotin-labeled Sub M, peptide immobilized on plate
# Description: (§1) Complementary peptides (0.2, 2, 20, and 200 μM) were dissolved in phosphate buffered saline (PBS) (pH 7.4) and fixed to microtiter wells for 5 hr at 37° C. The wells were blocked with blocking buffer (3% BSA/PBS) for 1 hr at 37° C. Either N-terminally biotinylated Substrate W or M (20 μM) in blocking buffer was added and incubated for overnight at 4° C. Streptavidin-horseradish peroxidase in blocking buffer was added to detect resulting bound substrates. The plate was incubated for 2 hr at room temperature (RT), followed by addition of 3, 3′, 5,5′-tetramethyl-benzidine (TMB) as substrate for horseradish peroxidase for color reaction.
# (§2) Reacti-Bind™ maleic anhydride-activated polystyrene plate (Pierce, IL, USA) was coated with 50 μl of HC peptide (200 μM in distilled water) by chemical coupling for 3 h at room temperature (RT) and washed three times with phosphate buffered saline (PBS) containing 0.05% tween 20 (PBST). The plate was blocked with blocking buffer (0.5% gelatin in PBS) for 1 h at RT. After discarding blocking buffer, biotinylated BACE1 substrates (200 μM) in blocking buffer was applied on the plate and incubated for 2.5 h at RT. Each well was washed three times with PBST. The bound biotinylated BACE1 substrates were detected by incubation with streptavidin-horseradish peroxidase (Str-HRP, 125 mU/ml in blocking buffer) for 2 h at RT. Color reaction was carried out with 50 μl of 3,3′,5,5′-Tetramethylbenzidine Liquid Substrate (Sigma-Aldrich, MO, USA). After stopping the reaction by addition of an equal volume of 1 N HCl, absorbance at 450 nm was read in an automated ELISA reader (EL 312e, Bio-Tek Instruments, VT, USA). All assays were carried out in duplicate.
# [6] = system: APP processing in HEK293-APP cells; test: Cell based assay of APP processing (βCTF, Western blot) in HEK293-APP cells; design: species or system human; conditions: βCTF
# Description: In the neuronal cells of the brain, APP is processed by α-secretase or β-secretase. To investigate the effects of the inhibitors on the cell, a cell based assay system was developed as described in FIG. 10. C-terminal fragment of APP remaining on the cell membrane was detected by Western blot. The resulting C-terminal fragments, αCTF or βCTF are further processed by γ-secretase. However, if the cells are treated with the γ-secretase inhibitor, this processing is blocked. As a result, αCTF or βCTF accumulate in the cell. If β-secretase inhibitor or APP inhibitor is added, this processing is blocked and βCTF disappears.
# To test APP inhibitor activities in cells, three complementary peptides, c-Sub M, c-Sub MΔC6, and c-Sub MΔN1C1, which show high absorbance in binding test, were added to whole cell extracts of HEK293-APP cells (Lanes 2, 3, and 4 in FIG. 11). In addition, γ-secretase inhibitor and cholesterol were added to the cells to increase βCTF level. Commercially available peptide-based β-secretase inhibitor was included as control (Lane 6, FIG. 11). To detect the N-terminal fragment of β-amyloid which is a product of APP processing, 6E10 antibody was employed. […] Recently, it has been reported that the commercially available peptide-based inhibitor had to be linked to an oligoarginine transporter peptide to have inhibitory activity against cells. Therefore, mimetic approach is adopted to produce cell permeable analogs. (Chang et al. J. Neurochemistry 2004; 89:1409-1416).
# After confirming the ability of the oligo-arginine coupled APP inhibitors to enter the cells, the inhibitors were applied to HEK293-APP cells overexpressing APP to test their inhibitory activities on APP processing. […] This inhibitor started to show significant inhibitory activity beginning from 0.1 μM (lower panel).
# [7] = target: T2, Substrate W (SEVKMDAEFR, β-secretase cleavage site of wild type APP) (Homo sapiens, UniProt P05067); test: Binding of biotin-labeled Substrate W to immobilized complementary (HC) peptides
# T2 construct: purchased Peptron, Inc; host or cells: chemical synthesis
# Description: as §1
# In particular, for Substrate W, complementary peptides (200 μM) dissolved in phosphate buffered saline (PBS) (pH 7.4) were chemically coupled to Reacti-Bind Maleic Anhydride Activated Polystyrene wells (Pierce Biotechnology, Inc.) for overnight at room temperature (RT). Remaining active sites of the plate were inactivated by adding ethanolamine (1 M) for 1 hr at RT. The wells were blocked with blocking buffer (3% BSA/PBS) for 1 hr at RT. N-terminally biotinylated Substrate W (20 μM) in blocking buffer was added and incubated for 3 hr at RT. Streptavidin-horseradish peroxidase in blocking buffer was added to detect resulting bound substrates. The plate was incubated for 2 hr at room temperature (RT), followed by addition of 3,3′,5,5′-tetramethyl-benzidine (TMB) as substrate for horseradish peroxidase for color reaction.
# as §2
# T1 sequence (P56817 46-501): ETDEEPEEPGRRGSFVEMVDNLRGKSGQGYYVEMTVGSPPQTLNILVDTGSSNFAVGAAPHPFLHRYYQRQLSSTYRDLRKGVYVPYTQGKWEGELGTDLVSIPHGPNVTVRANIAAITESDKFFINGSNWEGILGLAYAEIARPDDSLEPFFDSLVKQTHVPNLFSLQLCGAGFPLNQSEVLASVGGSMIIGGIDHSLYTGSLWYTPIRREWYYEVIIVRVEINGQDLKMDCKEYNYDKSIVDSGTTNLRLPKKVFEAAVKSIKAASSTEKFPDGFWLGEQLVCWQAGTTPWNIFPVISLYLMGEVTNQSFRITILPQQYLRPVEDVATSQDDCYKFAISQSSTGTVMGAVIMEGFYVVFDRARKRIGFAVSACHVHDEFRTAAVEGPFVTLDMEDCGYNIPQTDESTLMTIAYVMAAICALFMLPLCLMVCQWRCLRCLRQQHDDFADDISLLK
substance,measurement,setting,value
FCIQIHF (FCIQIHF-NH2) [c-Sub M ΔN2C1],Sub M cleavage blocked,[1],about 60%
same,inhibitory activity group on Substrate M cleavage,[2],most active
NH2-(CH2)5-CO—Cys-Ile-Gln-Ile-His-Phe-NH2 ([Ahx]CIQIHF-NH2; N-terminus assumed; SMILES CC[C@H](C)[C@H](NC(=O)[C@H](CCC(N)=O)NC(=O)[C@@H](NC(=O)[C@H](CS)NC(=O)CCCCCN)[C@@H](C)CC)C(=O)N[C@@H](Cc1c[nH]cn1)C(=O)N[C@@H](Cc1ccccc1)C(N)=O) [AHX-c-Sub M ΔN3C1],forms of CTFβ whose accumulation is inhibited,[3],both forms
same,accumulation of cleavage product CTFβ,[3],inhibited accumulation
same,in vitro inhibitory activity relative to non-modified c-Sub M ΔN3C1,"[2]; f-Sub M, rhBACE1",half
same,reduction of amount of Aβ released,"[4]; 6.25 μM, 9 h",about 70%
same,inhibition of Aβ production / APP processing in the cells,[4],reduced in a concentration dependent manner
"SEFCIQIHFR-NH2 [c-Sub M, SEFCIQIHFR]",binding to rhBACE1,rhBACE1,does not bind to rhBACE1
same,entry / transport into the cells,HEK293-APP cells,does not enter the cells
same,binding to Substrate M,[5],binds to Sub M appreciably and bind and binds its substrate Sub M and highest binding
same,binding to Substrate M,[5]; listed as c-Sub,bound
same,inhibitory activity on APP processing,[6],does not inhibit the processing of APP in cells; also recorded: none of the inhibitors tested showed inhibitory activity
same,inhibition of cleavage of Substrate M by β-secretase,"[2]; in vitro, rhBACE1",inhibit cleavage
same,inhibitory activity group on Substrate M cleavage,[2],less activity
same,binding to Sub W relative to c-Sub W,[7]; bio-Sub W,4 fold
same,binding to Substrate W,"[7]; biotin-labeled Sub W, peptide immobilized on plate",binds the wild type substrate Sub W efficiently
β-secretase inhibitor IV [reference compound],forms of CTFβ whose accumulation is inhibited,[3],only the nonphosphorylated form
same,accumulation of cleavage product CTFβ,[3],inhibited accumulation
same,inhibition of production of Aβ,[4]; 2 μM,about 90%
